Measurements published in patent US11661440B2 (priority 2015, dated 2023).
Ends that are not written are not given here.

Key:
[1] = target: NR1a/NR2A (GluN1-a/GluN2A) recombinant NMDA receptor (Rattus norvegicus, UniProt Q00959); assay type: cell-based
[2] = tested on: NMDA receptor; assay type: cell-based, rat
[3] = target: NR1a/NR2B (GluN1-a/GluN2B) recombinant NMDA receptor (Rattus norvegicus, UniProt Q00960); assay type: cell-based
Chain of NR1a/NR2B (GluN1-a/GluN2B) recombinant NMDA receptor (Q00960 whole entry, looked up): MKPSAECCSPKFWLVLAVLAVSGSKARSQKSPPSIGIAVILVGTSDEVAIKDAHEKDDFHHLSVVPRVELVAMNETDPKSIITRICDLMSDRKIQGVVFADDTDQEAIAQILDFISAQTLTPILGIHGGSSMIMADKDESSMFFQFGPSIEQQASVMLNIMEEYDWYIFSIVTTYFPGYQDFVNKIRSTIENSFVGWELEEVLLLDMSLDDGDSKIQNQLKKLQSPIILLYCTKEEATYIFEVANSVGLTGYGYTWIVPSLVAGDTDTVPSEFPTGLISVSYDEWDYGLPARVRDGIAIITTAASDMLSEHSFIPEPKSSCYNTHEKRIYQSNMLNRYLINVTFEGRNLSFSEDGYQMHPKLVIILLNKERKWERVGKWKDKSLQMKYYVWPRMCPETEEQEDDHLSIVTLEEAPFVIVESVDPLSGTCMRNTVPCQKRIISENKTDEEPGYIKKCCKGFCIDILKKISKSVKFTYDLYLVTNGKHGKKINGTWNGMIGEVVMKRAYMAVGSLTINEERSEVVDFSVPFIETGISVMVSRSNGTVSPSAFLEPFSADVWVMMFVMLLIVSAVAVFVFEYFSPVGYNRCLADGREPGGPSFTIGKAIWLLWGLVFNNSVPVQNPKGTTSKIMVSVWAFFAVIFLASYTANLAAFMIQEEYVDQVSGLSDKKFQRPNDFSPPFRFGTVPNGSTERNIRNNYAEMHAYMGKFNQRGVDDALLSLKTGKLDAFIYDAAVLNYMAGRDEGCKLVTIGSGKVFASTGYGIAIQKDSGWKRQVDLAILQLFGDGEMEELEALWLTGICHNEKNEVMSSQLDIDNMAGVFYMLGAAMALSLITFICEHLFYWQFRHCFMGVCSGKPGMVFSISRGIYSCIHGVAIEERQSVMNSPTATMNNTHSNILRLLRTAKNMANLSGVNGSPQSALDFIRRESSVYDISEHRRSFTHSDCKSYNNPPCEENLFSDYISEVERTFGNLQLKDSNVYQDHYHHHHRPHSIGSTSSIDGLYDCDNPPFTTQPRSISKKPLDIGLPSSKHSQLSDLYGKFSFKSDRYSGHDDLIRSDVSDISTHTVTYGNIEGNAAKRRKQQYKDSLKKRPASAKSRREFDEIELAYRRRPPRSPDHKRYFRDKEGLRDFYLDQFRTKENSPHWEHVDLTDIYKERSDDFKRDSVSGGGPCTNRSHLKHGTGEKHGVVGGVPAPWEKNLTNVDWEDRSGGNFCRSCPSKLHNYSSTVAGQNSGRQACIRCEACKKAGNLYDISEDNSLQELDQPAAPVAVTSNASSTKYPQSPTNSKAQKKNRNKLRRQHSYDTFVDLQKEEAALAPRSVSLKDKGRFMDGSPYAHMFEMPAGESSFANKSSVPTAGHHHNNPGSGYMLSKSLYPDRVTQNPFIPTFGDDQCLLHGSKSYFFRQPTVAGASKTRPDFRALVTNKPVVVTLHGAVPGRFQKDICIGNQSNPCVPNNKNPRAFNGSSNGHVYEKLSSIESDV

Chain of NR1a/NR2A (GluN1-a/GluN2A) recombinant NMDA receptor (Q00959 whole entry, looked up): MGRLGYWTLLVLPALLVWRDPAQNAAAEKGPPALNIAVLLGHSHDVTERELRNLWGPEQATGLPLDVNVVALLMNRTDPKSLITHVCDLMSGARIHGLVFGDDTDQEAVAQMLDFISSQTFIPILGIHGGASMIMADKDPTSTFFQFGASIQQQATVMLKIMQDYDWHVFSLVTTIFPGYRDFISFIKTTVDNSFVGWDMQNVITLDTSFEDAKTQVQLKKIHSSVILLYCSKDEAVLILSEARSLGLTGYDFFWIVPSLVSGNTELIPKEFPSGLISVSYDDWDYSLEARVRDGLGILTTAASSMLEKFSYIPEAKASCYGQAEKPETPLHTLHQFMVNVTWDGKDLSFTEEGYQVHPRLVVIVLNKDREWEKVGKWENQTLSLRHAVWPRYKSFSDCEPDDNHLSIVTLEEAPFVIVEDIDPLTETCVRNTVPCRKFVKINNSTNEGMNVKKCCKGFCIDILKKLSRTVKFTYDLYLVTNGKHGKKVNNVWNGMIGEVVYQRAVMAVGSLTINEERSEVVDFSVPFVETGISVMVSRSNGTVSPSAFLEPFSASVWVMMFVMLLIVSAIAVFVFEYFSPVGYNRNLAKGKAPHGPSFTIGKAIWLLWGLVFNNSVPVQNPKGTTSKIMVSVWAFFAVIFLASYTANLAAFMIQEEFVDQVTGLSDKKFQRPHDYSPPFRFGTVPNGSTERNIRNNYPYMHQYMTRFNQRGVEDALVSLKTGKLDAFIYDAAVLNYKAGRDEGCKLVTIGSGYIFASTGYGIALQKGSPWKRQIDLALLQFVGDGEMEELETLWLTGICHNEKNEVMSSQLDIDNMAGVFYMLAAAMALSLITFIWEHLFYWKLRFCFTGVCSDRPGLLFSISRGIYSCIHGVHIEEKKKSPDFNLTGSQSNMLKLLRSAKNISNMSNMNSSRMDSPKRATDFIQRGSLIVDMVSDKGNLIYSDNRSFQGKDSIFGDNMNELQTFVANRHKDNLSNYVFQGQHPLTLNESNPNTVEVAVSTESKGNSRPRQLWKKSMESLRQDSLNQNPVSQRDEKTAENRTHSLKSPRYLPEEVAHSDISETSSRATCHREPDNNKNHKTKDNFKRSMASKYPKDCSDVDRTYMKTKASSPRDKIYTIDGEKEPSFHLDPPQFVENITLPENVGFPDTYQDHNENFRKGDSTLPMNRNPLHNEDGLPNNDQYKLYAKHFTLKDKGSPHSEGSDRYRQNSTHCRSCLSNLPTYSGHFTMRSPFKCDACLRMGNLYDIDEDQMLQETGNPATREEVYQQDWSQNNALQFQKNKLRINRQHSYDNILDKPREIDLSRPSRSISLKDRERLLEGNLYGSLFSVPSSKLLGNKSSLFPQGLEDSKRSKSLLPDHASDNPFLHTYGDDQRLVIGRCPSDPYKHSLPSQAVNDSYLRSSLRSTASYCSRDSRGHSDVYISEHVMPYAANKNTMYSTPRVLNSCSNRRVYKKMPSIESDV

GEDDLQDNQDLIRDKSN [SEQ ID NO: 2]
reduction of evoked current (in words) [1]: slight reduction in current | inhibition in some registers [2]: ~40% | IC50 ([2]; read-out: IC50 for inhibition of NMDA receptor-evoked current (dose-response curve)): 202 µM | blocking of evoked current (in words) [3]: Almost total blocking of the current | selectivity between GluN2B and GluN2A subunits (in words) [3]: selectivity for subunit GluN2B rather than GluN2A
